# Measured values from patent US12516104B2, “Compositions and methods for diagnosis and treatment of cancer” (BioNTech SE, priority 2018, dated 2026).
# Ends that are not written are not given here.
# How the values were obtained:
# FN-6789 = molecular target: T1, FN-6789 (Homo sapiens, UniProt P02751); test: ELISA specificity: binding of Trx-cystine-knot miniproteins to off-target FN-6789 and control proteins; settings: for off-target and control protein signals: 200 nM Trx-fusion, FN-6789, milk powder, streptavidin, bovine serum albumin
# T1 construct: type III domains 6-9 without EDB (FN-6789); made in house; host or cells: E. coli BL21 (DE3), pET-21a
# Protocol: FIG. 4: Specificity analysis of Trx-cystine-knot miniprotein clones MCopt 1.0-1/-2/-3 and MCopt 2.0-1/-2/-3. 200 nM of each variant were applied to immobilized FN-B and FN-67B89 target proteins as well as to control proteins FN-6789, milk powder and bovine serum albumin (coated at 1 μg/well). An HRP-conjugated anti-s-tag antibody was used to analyze binding. ELISA was performed in duplicates with Trx-MC-Myc-010 serving as negative control.
# FIG. 5: Extended specificity analysis of Trx-cystine-knot miniprotein clones MCopt 1.0-2/-3 and MCopt 2.0-1/-2/3. In total 200 nM of each variant were applied to FN-B, T7-TEV-B, FN-67B89 and FN-B(8-14) target proteins as well as negative controls FN-6789, milk powder, bovine serum albumin, lysozyme, ovalbumin and aldolase (coated at 1 μg/well). ELISA was performed in duplicates, error bars represent standard deviation and Trx-MC-Myc-010 served as negative cystine-knot miniprotein control.
# FIG. 6: Saturation-binding curves of MCopt 1.0-2/-3 and MCopt 2.0-1/-2/-3 EDB binding. Trx-cystine-knot miniprotein binding was assayed against FN-B, FN-67B89 and FN-B(8-14) targets as well as against FN-6789 control protein (coated at 1 μg/well) in ten different concentrations. Binding of Trx-cystine-knot miniproteins was detected with an HRP-conjugated anti-s-tag-antibody. ELISAs were performed in duplicates (single values for FN-B(8-14)). A: from top to bottom SEQ ID NOs: 7, 8, and 12; and B: from top to bottom SEQ ID NOs: 11, 8, and 29.
# FIG. 9: A: Specificity analysis of Trx-MC-FN-010 to human FN-67B89 and FN-6789 using ELISA. B: Specificity analysis of Trx-MC-FN-016 to human FN-67B89 and FN-6789 using ELISA. Binding of Trx-MC-FN-010 and Trx-MC-FN-016 to FN-67B89 with concentrations ranging from 1.56-50 nM in comparison to FN-6789 was detected with 50 ng of HRP-conjugated anti-S-tag-antibody. ELISA was performed in duplicates using 1 μg coated FN-67B89 or FN-6789 per well.
# ELISA was used as technique to analyze protein-protein interactions. Cavities of 96-well microtiter plates (Nunc MaxiSorp™, Thermo Fisher Scientific) were coated with 1 μg FN-B, bovine serum albumin (BSA, Eurobio), milk powder, streptavidin (Sigma Aldrich), T7-His-TEV-B (LD BioPharma), FN-B(8-14) (R&D Systems), lysozyme, ovalbumin (GE Healthcare Life Science), aldolase (GE Healthcare Life Science) or 0.6 μg anti-c-myc-antibody (M4439, Sigma) overnight at 4° C. The wells were washed three times with PBS-T (1×PBS with 0.1% (w/v) Tween-20), blocked with 1× Casein buffer (Sigma Aldrich) diluted in PBS for 2 h at RT and washed again as described. 20 μL of supernatant containing the respective heat-purified fusion protein was added to 80 μL PBS-T or 200 nM of MC-Myc-010 fusion protein (wells with anti-c-myc-antibody) diluted in PBS-T, applied to the cavities and incubated for 1 h at 4° C. After three times of washing with PBS-T, binding of the respective variant was detected with a horseradish peroxidase (HRP)-conjugated anti-S-tag antibody (ab18589 or ab19324, Abcam). Enzymatic reaction was measured with TMB as a chromogenic substrate and stopped with 0.2 M HCl after approximately 5 min. The measurement of absorbance at 450 nm was performed using an Infinite M200 PRO Microplate Reader (Tecan).
# U-87 MG tumor tissues = test: Immunofluorescence staining of U-87 MG xenograft tumor sections; format: binding, human; settings: biotinylated miniprotein tetramerized with Cy3-labeled streptavidin; CD31 co-staining
# Protocol: FIG. 8: Specific binding of MC-FN-010 to glioblastoma xenograft tumor sections. Representative results of immunofluorescence staining of U-87 MG tumor tissues with EDB ligand MC-FN-010 and negative control MC-FN-0115. The tissue sections (5 μm) were stained with tetramerized cystine-knot miniprotein-biotin strepatividin-Cy3 complex (red) and with an anti-CD31 antibody to visualize vasculature (green). Scale bars indicate 100 μm.
# FIG. 13: Specific binding of MC-FN-010 to tissue sections derived from the human U-87 MG glioblastoma cell line grown as mouse xenograft tumor. […] Tissue sections (6 μm) were stained with Alexa Fluor 680 conjugated trimeric cystine-knot miniproteins and an anti-CD31 antibody detected with a secondary antibody to visualize vasculature. […]
# (§1) For immunofluorescence staining cryopreserved tumor or brain pieces were cut in five micron thick sections, fixed in ice cold acetone for 5 min and air-dried. […] Images were captured with a Zeiss Apotome microscope (Carl Zeiss) and analyzed with ZEN software (Carl Zeiss).
# (§2) Cryopreserved tumor or brain pieces were cut in six micron thick sections, fixed in l ice cold acetone for 5 min and air-dried. […] CD31 staining of primary anti-mouse CD31 antibody was detected with a secondary anti-rabbit IgG-Cy3 antibody (111-165-003, Jackson ImmunoResearch) diluted 1:400 in PBS with 1% BSA for 30 min at 37° C. […]
# normal mouse brain = test: Immunofluorescence staining of normal mouse brain sections; format: binding; settings: biotinylated miniprotein tetramerized with Cy3-labeled streptavidin
# Protocol: FIG. 12: Representative immunofluorescence staining of normal mouse brain with EDB ligand MC-FN-010 and negative control MC-FN-0115. Tissue sections (6 μm) were stained with tetramerized cystine-knot miniprotein-biotin/strepatividin-Cy3 complex and an anti-CD31 antibody to visualize vasculature. Scale bars, 100 μm.
# FIG. 13: Specific binding of MC-FN-010 to tissue sections derived from the human U-87 MG glioblastoma cell line grown as mouse xenograft tumor. Representative immunofluorescence staining of U-87 MG tumor tissues (A) and normal mouse brain (B) with trimeric MC-FN-010 and negative control MC-FN-0115. Tissue sections (6 μm) were stained with Alexa Fluor 680 conjugated trimeric cystine-knot miniproteins and an anti-CD31 antibody detected with a secondary antibody to visualize vasculature. […]
# as §1, §2
# FN-67B89 = molecular target: T2, FN-67B89 (Homo sapiens, UniProt P02751); test: Surface plasmon resonance spectroscopy on immobilized biotinylated FN-67B89; format: binding; settings: for off-rates / binding affinity towards biotinylated FN-67B89: tag-free monomer; for binding affinity towards biotinylated FN-67B89: multi cycle kinetic, 1:1 Langmuir
# T2 construct: FN-67B89, amino acid G1080-E1455; made in house; host or cells: E. coli BL21 (DE3), pET-21a
# Protocol: FIG. 10: A: Kinetic parameters of MC-FN-010 and MC-FN-016 resulting from surface plasmon resonance analysis. Biotinylated human FN-67B89 was immobilized to streptavidin sensor to perform affinity determination of MC-FN-010 and MC-FN-016 using two-fold serial dilutions starting from 4000 nM. Kinetic parameters were calculated using a 1:1 Langmuir fitting model applied to generated sensorgrams. B: Kinetic parameters of AF680-(MC-FN-010)3 and AF680-(MC-FN-016)3 resulting from surface plasmon resonance with single cycle kinetic analysis. Biotinylated human FN-67B89 was immobilized to streptavidin chip to perform binding determination of AF680-(MC-FN-010)3 and AF680-(MC-FN-016)3 using two-fold serial dilution starting from 10 nM. Kinetic parameters were calculated using a 1:1 Langmuir fitting model applied to generated sensorgrams.
# FIG. 15: SPR binding analysis of cystine-knot miniprotein variants to EDB. Kinetic parameters of EDB-specific cystine-knot miniprotein variants as measured by surface plasmon resonance analysis and calculated using a 1:1 Langmuir fitting model. Biotinylated human FN-67B89 was immobilized to a streptavidin sensor to determine affinity of DOTA-(MC-FN-016)3 using two-fold serial dilutions.
# Binding kinetics of monomeric and trimeric cystine-knot miniprotein ligands to its target protein was determined using a Biacore T-100 device (GE Healthcare Life Science) with PBS-T as running buffer. For this, the biotinylated FN-67B89 protein (200-300 μg/mL) was captured by binding to a flow cell of a SA sensor chip (GE Healthcare Life Science). To analyze monomeric ligands an immobilized target density of maximum 750 response units (RU) was applied and for trimeric variants a RU of maximum 400 was aimed for. Binding analysis of monomeric ligands was performed using a multi cycle kinetic method with concentrations ranging from 50 to 4000 nM. A cycle started with an association period of 90 sec, followed by a dissociation period of 420 sec and a final regeneration step. Kinetic measurement was conducted applying a flow rate of 20 μL/min. Trimeric variants were analyzed under the same association and dissociation conditions, but using the single cycle kinetic measurement mode in a constant flow of […]. In this case the analyte concentration was between 1.25 nM to 10 nM. Binding kinetics and steady state analysis were calculated using a global kinetic fit model (1:1 Langmuir, Biacore T-100 Evaluation Software, GE Healthcare Life Science).
# T2 sequence (P02751 1080-1546): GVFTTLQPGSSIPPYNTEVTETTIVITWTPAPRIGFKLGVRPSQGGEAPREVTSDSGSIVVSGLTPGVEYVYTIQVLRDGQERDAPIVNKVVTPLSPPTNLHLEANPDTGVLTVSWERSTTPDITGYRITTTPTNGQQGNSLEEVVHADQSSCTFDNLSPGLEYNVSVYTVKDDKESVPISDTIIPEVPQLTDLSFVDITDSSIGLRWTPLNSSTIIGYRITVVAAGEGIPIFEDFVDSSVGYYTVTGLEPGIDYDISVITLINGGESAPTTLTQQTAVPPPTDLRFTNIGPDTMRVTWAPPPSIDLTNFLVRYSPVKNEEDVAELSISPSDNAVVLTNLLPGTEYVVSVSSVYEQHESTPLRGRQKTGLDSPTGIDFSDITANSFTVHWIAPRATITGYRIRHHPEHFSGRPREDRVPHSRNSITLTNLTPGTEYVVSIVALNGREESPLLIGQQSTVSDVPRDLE
# T1 sequence (P02751 32-2386 isoform P02751-1 limits assumed): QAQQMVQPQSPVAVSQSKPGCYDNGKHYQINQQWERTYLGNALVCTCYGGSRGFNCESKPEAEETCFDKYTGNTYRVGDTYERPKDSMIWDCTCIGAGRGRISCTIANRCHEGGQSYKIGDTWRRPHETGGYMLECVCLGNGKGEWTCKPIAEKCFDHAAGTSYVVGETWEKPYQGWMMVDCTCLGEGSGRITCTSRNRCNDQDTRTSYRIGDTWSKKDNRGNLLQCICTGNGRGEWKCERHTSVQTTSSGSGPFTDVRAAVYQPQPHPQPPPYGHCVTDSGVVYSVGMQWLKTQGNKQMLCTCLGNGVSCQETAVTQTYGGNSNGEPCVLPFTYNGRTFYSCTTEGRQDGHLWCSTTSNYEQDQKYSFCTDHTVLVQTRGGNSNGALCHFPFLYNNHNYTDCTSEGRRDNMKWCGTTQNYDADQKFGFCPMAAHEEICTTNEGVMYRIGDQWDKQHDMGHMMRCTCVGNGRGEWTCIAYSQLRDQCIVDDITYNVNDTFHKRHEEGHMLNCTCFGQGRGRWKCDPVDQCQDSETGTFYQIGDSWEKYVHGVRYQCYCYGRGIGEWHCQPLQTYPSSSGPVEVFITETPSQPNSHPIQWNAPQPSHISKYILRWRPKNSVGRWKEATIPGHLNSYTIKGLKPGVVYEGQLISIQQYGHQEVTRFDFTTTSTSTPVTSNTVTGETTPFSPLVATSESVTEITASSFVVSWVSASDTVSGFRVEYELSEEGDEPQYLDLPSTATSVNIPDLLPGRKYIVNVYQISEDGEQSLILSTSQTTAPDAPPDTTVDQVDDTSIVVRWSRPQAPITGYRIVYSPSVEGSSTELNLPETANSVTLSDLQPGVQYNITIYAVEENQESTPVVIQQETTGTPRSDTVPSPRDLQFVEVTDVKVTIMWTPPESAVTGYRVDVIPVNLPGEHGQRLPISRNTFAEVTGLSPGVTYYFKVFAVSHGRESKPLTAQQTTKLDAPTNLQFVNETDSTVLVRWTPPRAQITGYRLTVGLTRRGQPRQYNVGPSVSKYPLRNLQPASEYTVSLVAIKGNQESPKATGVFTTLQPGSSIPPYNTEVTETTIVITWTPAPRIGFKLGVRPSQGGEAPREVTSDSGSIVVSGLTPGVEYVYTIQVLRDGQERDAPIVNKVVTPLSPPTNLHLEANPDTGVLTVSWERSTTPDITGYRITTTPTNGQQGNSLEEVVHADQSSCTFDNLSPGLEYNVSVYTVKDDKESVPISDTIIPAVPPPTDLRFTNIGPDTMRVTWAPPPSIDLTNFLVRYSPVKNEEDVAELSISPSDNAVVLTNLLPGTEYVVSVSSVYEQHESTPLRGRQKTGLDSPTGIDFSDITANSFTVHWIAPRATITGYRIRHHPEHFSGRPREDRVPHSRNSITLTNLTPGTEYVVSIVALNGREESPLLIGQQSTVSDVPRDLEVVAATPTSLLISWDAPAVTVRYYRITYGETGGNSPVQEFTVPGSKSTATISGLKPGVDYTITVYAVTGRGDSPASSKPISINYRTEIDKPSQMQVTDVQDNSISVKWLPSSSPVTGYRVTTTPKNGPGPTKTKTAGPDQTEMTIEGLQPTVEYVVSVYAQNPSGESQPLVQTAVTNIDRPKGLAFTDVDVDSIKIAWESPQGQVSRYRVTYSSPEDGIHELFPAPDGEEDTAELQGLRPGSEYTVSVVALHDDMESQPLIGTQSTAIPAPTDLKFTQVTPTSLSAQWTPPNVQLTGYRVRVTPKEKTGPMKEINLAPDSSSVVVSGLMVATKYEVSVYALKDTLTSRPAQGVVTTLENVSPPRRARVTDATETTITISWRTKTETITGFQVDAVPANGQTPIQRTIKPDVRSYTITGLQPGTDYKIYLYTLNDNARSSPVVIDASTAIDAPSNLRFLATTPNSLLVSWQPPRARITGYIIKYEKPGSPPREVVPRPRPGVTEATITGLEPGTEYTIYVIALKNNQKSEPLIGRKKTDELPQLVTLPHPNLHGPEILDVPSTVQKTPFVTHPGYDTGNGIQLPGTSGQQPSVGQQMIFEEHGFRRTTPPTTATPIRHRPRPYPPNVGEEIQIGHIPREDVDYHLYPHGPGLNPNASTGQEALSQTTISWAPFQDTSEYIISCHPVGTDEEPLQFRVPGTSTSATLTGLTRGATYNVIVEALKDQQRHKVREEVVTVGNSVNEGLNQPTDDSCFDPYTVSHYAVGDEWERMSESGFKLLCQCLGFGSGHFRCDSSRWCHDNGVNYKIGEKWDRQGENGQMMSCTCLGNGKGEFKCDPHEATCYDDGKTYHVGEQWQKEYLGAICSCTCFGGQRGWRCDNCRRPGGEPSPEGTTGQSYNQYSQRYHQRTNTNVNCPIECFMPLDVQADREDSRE
substance,measurement,setting,value
"MCopt 1.0-1: enriched cystine-knot miniprotein clone without the R-I/V-R-(L) motif, SEQ ID NO: 10 (WTCTKKYPNTISCRRDSDCRVTCICRGNGYCG; EDB binding peptide)",off-target and control protein signals,FN-6789,high interaction
SVCKNVSIMRIRLCRRDSDCPGACICRGNGYCG (cysteine pairing not given here) [MCopt 2.0-1],off-target and control protein signals,FN-6789,medium to low
WKCQPTNGYRIRCRRDSDCPGDCICRGNGYCG (cysteine pairing not given here) [MCopt 1.0-2],off-target and control protein signals,FN-6789,medium to low
SVCAHYNTIRVRLCRRDSDCPGACICRGNGYCG (cysteine pairing not given here) [MCopt 2.0-2],off-target and control protein signals,FN-6789,medium to low
"PMCTQRANRIAACRRDSDCTGACICRGNGYCG (Control peptide) [MC-FN-0115, reference compound]",immunofluorescence staining of U-87 MG tumor sections,U-87 MG tumor tissues,no fluorescence signal at all
same,fluorescence signal on normal mouse brain section,normal mouse brain,No fluorescence signal
SVCKQANFVRIRLCRRDSDCPGACICRGNGYCG (cysteine pairing not given here) [MCopt 2.0-3],off-target and control protein signals,FN-6789,medium to low
same,background signals / unspecific binding towards FN-6789 off-target,"FN-6789; dose-dependent saturation-binding ELISA, compared with EDB containing target proteins",high degree of unspecific binding
PMCTQRKNRIRLCRRDSDCTGACICRGNGYCG (cysteine pairing not given here) [MC-FN-010],off-rates,FN-67B89,fast
same,binding affinity towards biotinylated FN-67B89,FN-67B89,one digit micromolar range
same,binding towards FN-67B89 target protein,"FN-67B89; tag-free proteins, 50-1000 nM, data not shown",strong binding
same,off-target and control protein signals,FN-6789,medium to low
same,fluorescence signal on normal mouse brain section,normal mouse brain,No fluorescence signal
PMCTQRANRIRLCRRDSDCTGACICRGNGYCG [MC-FN-016],off-rates,FN-67B89,fast
same,binding affinity towards biotinylated FN-67B89,FN-67B89,one digit micromolar range
